Results taken from paper PMC5545170 (Pediatric diabetes, 2017).
pIC50: −log10 of the molar value.

Legend:
Assay in all cases: spectrophotometric GDH activity in […] cell homogenate
Type in all cases: biochemical
[1] = target: GDH (glutamate dehydrogenase, GLUD1) (Homo sapiens, UniProt P00367)
[2] = target: GDH (glutamate dehydrogenase, GLUD1) (Homo sapiens, UniProt P00367, H507Y)
[3] = target: GDH (glutamate dehydrogenase, GLUD1) (Homo sapiens, UniProt P00367, S498L)
GDH (glutamate dehydrogenase, GLUD1) (Homo sapiens, UniProt P00367, S498L), sequence (P00367 54-558 S498L): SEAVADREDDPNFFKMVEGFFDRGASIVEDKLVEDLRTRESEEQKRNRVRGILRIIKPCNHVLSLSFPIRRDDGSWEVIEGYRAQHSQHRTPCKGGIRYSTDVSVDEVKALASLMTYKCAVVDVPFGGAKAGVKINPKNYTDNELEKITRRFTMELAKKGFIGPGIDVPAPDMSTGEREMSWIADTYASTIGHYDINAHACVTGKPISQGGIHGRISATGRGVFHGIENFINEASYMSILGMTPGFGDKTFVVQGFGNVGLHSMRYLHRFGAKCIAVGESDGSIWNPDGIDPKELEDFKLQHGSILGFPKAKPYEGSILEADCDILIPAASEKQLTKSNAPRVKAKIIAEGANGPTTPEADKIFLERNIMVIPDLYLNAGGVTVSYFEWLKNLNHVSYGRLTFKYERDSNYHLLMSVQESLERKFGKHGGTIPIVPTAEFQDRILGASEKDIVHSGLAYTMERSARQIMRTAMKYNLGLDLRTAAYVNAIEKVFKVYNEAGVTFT

GDH (glutamate dehydrogenase, GLUD1) (Homo sapiens, UniProt P00367, H507Y), sequence (P00367 54-558 H507Y): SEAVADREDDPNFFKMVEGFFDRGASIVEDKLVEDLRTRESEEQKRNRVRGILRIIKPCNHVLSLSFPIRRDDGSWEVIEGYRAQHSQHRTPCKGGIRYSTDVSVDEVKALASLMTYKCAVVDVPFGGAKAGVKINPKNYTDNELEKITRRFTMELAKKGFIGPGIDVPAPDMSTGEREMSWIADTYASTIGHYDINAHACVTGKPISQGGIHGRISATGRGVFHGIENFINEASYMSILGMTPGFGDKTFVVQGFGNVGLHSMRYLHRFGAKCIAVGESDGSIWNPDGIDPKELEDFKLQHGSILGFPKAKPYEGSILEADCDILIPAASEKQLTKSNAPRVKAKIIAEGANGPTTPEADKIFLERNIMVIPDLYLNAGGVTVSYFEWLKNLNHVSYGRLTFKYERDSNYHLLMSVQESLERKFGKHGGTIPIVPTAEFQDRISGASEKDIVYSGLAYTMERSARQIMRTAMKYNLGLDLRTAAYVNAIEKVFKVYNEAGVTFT
GDH (glutamate dehydrogenase, GLUD1) (Homo sapiens, UniProt P00367), sequence (P00367 54-558): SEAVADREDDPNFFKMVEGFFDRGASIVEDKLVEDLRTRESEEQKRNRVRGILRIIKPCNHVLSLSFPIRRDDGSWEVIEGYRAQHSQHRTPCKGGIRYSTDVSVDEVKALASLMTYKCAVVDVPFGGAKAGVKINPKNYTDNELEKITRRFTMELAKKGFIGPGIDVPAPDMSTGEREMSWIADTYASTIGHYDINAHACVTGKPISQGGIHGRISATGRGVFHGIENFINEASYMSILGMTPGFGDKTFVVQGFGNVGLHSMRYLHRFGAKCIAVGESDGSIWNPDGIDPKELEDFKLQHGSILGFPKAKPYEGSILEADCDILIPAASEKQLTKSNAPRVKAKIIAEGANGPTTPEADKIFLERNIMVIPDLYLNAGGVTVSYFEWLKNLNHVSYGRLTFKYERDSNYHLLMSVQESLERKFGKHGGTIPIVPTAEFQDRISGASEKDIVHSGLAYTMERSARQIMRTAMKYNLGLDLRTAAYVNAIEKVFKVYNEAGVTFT

Compound | pIC50 [1] | pIC50 [2] | pIC50 [3]
O=C(O[C@@H]1Cc2c(O)cc(O)cc2O[C@@H]1c1cc(O)c(O)c(O)c1)c1cc(O)c(O)c(O)c1 [EGCG] | 5.98 | 5.99 | 5.97
Nc1nc2c(ncn2[C@@H]2O[C@H](COP(=O)(O)OP(=O)(O)OP(=O)(O)O)[C@@H](O)[C@H]2O)c(=O)[nH]1 [GTP] | 7.32 | 3.50 | 4.39
